Results published in US9034793B2, “Use of ribose to enhance plant growth” (Bioenergy, Inc., priority 2002, dated 2015).

Test system: plants grown from seed (5 seeds per plot)
Assay: Plant feeding with ribose for growth (Table 1)
Assay type: in vivo, Hosta (H. plantaginea grandiflora)
Settings: for Unsprouted: of 5 seeds per plot
Description: Hosta (H. plantaginea grandiflora) plants were transplanted. The protocol was designed such that half of the plants were supplied with water alone and half of the plants received a ribose based solution, in which powdered D-ribose was mixed in water. All plants were transplanted at the same level in the soil and in like soil. All plants were watered at the same times of day, mid-morning and at dusk. Each plant received the same amount of water/watering (½ liter water at each watering). Results of plant growth data following transplantation are graphically depicted in FIGS. 1 and 2. [table]

| Compound | Plant measures, Mean (23 June, 5 seeds per plot) [inches] | Unsprouted (23 June) | #Plants/blossom (Measured 8 July) | Plant measures, Mean (Measured 8 July) [inches] |
| --- | --- | --- | --- | --- |
| O=C[C@H](O)[C@H](O)[C@H](O)CO [R2, ribose] | 3.3 | 1 | 3 | 5.8 |
| O=C[C@H](O)[C@H](O)[C@H](O)CO [R3, ribose] | 6.05 | 0 | 4 | 9.3 |
